According to patent US20090137572A1, “2-substituted-4-heteroaryl-pyrimidines useful for the treatment of proliferative disorders” (priority 2004, published 2009):
Read-outs that look alike come from different tables or passages of the source.

Assays:
Format in all cases: biochemical
CDK4-cyclin D1 = CDK4-cyclin D1 (Homo sapiens, UniProt P11802); experiment: Kinase assay (radioactive phosphate incorporation), CDK4-cyclin D1; conditions: read-out: Kinase Inhibition pIC50 CDK4-cyclin D1 (converted)
CDK4-cyclin D1, sequence (P11802 whole entry): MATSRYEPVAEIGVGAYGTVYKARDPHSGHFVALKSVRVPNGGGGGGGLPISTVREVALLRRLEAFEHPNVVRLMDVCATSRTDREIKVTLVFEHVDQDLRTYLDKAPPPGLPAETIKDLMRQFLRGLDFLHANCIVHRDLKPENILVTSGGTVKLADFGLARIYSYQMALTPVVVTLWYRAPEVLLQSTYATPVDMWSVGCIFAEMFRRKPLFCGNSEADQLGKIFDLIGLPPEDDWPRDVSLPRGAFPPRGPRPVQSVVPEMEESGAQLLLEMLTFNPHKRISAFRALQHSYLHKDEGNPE
CDK4-cyclin D1, sequence (P24385 whole entry partner): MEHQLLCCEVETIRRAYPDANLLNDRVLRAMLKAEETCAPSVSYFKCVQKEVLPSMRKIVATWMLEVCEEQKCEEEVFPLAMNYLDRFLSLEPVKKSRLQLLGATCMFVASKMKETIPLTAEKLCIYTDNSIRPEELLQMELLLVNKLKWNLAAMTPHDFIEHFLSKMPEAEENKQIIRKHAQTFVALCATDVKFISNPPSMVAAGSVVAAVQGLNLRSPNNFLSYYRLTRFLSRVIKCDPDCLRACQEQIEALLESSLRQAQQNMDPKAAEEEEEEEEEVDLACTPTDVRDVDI
Procedure, shortened: (§1)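 Radiometric filter-binding format: recombinant kinase + substrate, pH 7.4 MOPS buffer with EGTA, DTT, vanadate; 100 μM ATP/[γ-32P]-ATP, 15 mM MgCl2; 30° C; stopped on ice, P81 or GF/C filtration, scintillation read.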

CDK9/cyclin T1 = CDK9/cyclin T1 (Homo sapiens, UniProt P50750); experiment: CDK 9 assay (CTD peptide substrate); conditions: read-out: Kinase Inhibition pIC50 CDK9-cyclin T1 (converted)
CDK9/cyclin T1, sequence (P50750 whole entry): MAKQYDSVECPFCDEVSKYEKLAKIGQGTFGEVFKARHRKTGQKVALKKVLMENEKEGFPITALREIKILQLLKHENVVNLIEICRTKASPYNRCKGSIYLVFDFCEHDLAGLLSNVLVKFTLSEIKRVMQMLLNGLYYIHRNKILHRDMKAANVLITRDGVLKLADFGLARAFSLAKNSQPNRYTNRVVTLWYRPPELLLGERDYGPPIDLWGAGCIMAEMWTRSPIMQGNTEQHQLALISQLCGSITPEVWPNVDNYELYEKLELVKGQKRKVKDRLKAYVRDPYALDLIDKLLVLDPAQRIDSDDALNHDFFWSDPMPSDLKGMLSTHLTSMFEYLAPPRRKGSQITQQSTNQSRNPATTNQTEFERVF
CDK9/cyclin T1, sequence (O60563 whole entry partner): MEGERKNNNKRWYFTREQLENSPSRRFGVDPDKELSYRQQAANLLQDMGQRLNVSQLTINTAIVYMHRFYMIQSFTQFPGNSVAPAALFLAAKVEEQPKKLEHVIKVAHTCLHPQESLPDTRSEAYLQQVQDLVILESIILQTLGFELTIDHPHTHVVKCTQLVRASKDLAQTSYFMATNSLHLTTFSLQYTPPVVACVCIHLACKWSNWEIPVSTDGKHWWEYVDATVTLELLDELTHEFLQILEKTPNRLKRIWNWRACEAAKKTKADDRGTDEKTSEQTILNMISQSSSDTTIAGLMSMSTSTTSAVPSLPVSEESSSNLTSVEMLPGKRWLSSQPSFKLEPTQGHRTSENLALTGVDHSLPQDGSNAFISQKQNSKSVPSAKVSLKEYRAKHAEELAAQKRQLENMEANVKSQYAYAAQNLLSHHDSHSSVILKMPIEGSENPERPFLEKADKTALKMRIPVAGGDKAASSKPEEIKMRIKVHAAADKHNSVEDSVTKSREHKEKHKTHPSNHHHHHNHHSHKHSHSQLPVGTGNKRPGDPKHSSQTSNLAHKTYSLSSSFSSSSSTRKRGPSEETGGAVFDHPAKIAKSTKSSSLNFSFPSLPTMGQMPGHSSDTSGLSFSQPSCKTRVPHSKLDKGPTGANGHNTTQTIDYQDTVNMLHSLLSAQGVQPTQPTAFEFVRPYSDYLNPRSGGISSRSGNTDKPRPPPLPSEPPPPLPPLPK
Procedure, shortened: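 Test compounds were incubated with recombinant human kinase/cyclin complex and CTD peptide substrate for 45 min at 30° C (pH 7.2, 100 μM ATP spiked with 32PγATP, 15 mM MgCl2). Reactions were stopped on ice, avidin was added, and phosphorylated peptide was captured on P81 filters and counted by scintillation.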

GSK3b = GSK3b (Homo sapiens, UniProt P49841); experiment: Kinase assay (radioactive phosphate incorporation), GSK-3b; conditions: read-out: Kinase Inhibition pIC50 GSK-3b (converted)
GSK3b, sequence (P49841 whole entry, species assumed): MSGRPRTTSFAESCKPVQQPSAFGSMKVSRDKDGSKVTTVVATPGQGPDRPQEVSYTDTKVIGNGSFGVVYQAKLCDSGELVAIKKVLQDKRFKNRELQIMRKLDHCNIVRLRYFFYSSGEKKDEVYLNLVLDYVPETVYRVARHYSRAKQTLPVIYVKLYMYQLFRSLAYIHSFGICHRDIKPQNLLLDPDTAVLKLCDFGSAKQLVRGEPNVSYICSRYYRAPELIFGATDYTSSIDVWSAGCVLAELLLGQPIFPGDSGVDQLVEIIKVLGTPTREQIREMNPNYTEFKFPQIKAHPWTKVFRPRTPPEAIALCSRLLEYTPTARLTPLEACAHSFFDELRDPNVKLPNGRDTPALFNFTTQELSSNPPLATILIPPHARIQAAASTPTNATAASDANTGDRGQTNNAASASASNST
Procedure, shortened: as §1

[1] = molecular target: T1, Flt3 (FMS-like tyrosine kinase-3) (Homo sapiens, UniProt P36888); experiment: Kinase assay (radioactive phosphate incorporation), Flt3; conditions: pIC50 is -log(IC50, M), read-out: Kinase Inhibition pIC50 Flt3 (converted)
T1 sequence (P36888 27-993): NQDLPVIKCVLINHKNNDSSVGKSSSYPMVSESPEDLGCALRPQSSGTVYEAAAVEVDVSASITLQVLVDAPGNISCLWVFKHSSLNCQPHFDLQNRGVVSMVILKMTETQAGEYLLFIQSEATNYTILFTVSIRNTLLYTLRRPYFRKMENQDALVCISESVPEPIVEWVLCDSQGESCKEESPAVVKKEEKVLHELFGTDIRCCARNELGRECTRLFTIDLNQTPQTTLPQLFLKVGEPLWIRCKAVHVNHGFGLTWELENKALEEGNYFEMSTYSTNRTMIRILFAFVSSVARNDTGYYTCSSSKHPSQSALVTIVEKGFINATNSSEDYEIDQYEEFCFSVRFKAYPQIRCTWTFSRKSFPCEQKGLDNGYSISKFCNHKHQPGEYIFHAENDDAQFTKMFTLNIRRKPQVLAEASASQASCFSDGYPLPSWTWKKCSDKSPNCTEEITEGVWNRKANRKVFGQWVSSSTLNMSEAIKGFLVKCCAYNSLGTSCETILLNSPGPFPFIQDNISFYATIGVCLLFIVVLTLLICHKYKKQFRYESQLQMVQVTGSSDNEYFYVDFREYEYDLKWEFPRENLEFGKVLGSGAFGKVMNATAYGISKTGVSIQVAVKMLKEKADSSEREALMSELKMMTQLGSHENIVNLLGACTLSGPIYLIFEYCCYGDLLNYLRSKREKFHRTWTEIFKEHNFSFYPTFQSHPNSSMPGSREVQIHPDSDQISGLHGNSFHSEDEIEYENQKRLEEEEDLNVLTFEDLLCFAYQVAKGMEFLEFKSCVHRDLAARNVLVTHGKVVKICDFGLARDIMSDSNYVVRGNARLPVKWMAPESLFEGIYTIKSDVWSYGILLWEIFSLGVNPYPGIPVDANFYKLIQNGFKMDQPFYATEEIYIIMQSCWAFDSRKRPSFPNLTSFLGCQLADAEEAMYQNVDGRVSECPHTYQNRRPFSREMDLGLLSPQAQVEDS
Procedure, shortened: as §1

[2] = molecular target: T2, protein kinases (panel of Table 4) (Homo sapiens, UniProt P35968); experiment: Kinase selectivity profile, kinase inhibition IC50 (Table 4), ATP 100 μM; conditions: kinase VEGFR2
T2 construct: other: kinase VEGFR2; ATP 100 μM
T2 sequence (P35968 whole entry): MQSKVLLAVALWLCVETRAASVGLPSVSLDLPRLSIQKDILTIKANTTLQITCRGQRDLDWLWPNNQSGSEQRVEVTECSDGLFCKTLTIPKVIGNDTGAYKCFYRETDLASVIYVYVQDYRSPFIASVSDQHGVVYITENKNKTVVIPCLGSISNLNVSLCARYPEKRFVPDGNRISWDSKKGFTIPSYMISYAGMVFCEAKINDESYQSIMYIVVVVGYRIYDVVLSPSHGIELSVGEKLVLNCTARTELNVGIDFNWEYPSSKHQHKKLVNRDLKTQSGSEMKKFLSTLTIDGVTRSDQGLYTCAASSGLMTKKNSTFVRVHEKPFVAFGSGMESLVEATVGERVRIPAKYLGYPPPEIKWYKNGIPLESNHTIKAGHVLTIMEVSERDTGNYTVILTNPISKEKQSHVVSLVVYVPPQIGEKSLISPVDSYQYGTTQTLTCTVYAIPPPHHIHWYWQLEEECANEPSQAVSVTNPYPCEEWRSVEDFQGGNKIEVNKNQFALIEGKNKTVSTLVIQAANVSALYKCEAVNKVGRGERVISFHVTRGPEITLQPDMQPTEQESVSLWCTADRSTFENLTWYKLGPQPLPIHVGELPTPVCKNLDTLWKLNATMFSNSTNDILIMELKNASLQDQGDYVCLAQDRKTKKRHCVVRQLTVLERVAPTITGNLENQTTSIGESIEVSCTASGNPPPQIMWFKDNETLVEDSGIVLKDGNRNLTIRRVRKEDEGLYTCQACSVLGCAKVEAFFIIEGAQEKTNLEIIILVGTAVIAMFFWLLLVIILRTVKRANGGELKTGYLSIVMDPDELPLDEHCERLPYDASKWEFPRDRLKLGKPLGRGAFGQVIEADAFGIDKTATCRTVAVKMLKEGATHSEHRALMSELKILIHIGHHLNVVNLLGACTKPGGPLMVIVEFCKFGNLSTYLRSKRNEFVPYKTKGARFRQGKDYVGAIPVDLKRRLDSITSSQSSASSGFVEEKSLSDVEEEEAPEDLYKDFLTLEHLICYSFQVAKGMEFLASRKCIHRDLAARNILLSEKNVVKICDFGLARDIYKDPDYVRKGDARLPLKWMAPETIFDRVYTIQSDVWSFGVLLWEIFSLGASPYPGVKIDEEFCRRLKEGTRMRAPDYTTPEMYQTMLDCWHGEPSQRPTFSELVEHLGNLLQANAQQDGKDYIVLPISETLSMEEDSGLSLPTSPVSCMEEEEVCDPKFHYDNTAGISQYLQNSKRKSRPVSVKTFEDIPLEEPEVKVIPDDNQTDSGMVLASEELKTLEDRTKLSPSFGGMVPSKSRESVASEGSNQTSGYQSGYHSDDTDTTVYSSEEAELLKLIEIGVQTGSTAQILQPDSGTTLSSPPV
Procedure: (§2) For the assays shown in Table 3, the kinases were assayed at the following ATP concentrations: SAPK4, PKBΔph, GSK3b, SAPK3, CK2, MKK1, PIM2, IKKB, ERK8, and PRK2 at 5 μM; JNK, PRAK, ROCK-II, SAPK2b, CDK2, CHK1, MSK1, CSK, P70S6K, PKA, CK1, MAPKAP-K2, SGK, PKCa, PDK1, NEK 7, and MAPKAP-K3 at 20 μM; SAPK2a, LCK, AMPK, MAPK2, DYRK1a, MAPKAP-K1a, NEK-6, NEK2a, PBK, CAMK-1, SRPK-1, JNK3, MNK2, RSK2, MNK1, PKBB, and SmMLCK at 50 μM. For the assays in Table 4 the ATP concentration was 100 μM throughout.

CDK2-cycline E = CDK2-cycline E (Homo sapiens, UniProt P24941); experiment: Kinase assay (radioactive phosphate incorporation), CDK2-cyclin E; conditions: read-out: Kinase Inhibition pIC50 CDK2-cycline E (converted)
Procedure, shortened: as §1

[3] = molecular target: T3, protein kinases (panel of Table 4) (Homo sapiens, UniProt P24941); experiment: Kinase selectivity profile, kinase inhibition IC50 (Table 4), ATP 100 μM
T3 construct: other: kinase CDK2A; ATP 100 μM; other: kinase CDK2E
Procedure: as §2

[4] = kinase CDK2A, read-out: Kinase inhibition IC50, CDK2A
[5] = kinase CDK2E, read-out: Kinase inhibition IC50, CDK2E

IC50 (CDK4-cyclin D1) [nM] | IC50 (CDK9/cyclin T1) [nM] | IC50 (GSK3b) [nM] | IC50 [1] [nM] | IC50 [2] [nM] | IC50 (CDK2-cycline E) [nM] | IC50 [3, 4] [nM] | IC50 [3, 5] [nM] | SMILES
15.8 | 2.51 | 158 | 31.6 | 36 | – | – | – | CNc1nc(C)c(-c2ccnc(Nc3cccc(S(N)(=O)=O)c3)n2)s1 [Compound 19, 3-[4-(4-Methyl-2-methylamino-thiazol-5-yl)-pyrimidin-2-ylamino]-benzenesulfonamide]
158 | 1 | 100 | 63.1 | 44 | 3.16 | 7 | 3 | CNc1nc(C)c(-c2ccnc(Nc3cccc(S(C)(=O)=O)c3)n2)s1 [Compound 27, (3-Methanesulfonyl-phenyl)-[4-(4-methyl-2-methylamino-thiazol-5-yl)-pyrimidin-2-yl]-amine]
– | – | 1260 | 158 | 390 | 3160 | > 10000 | 3000 | CNc1nc(C)c(-c2ccnc(Nc3ccc(C)c(S(=O)(=O)N4CCOCC4)c3)n2)s1 [Compound 37, [4-(4-Methyl-2-methylamino-thiazol-5-yl)-pyrimidin-2-yl]-[4-methyl-3-(morpholine-4-sulfonyl)-phenyl]-amine]
– | 25.1 | 2000 | 200 | – | – | > 10000 | > 10000 | Cc1ccc(Nc2nccc(-c3sc(N)nc3C)n2)cc1S(=O)(=O)N1CCOCC1 [Compound 38, [4-(2-Amino-4-methyl-thiazol-5-yl)-pyrimidin-2-yl]-[4-methyl-3-(morpholine-4-sulfonyl)-phenyl]-amine]
1580 | 31.6 | 501 | 200 | 240 | 251 | 2100 | 270 | COCCNS(=O)(=O)c1cccc(Nc2nccc(-c3sc(N)nc3C)n2)c1 [Compound 55, 3-[4-(2-Amino-4-methyl-thiazol-5-yl)-pyrimidin-2-ylamino]-N-(2-methoxy-ethyl)-benzenesulfonamide]

SMILES | IC50 (CDK4-cyclin D1) [nM] | IC50 (CDK9/cyclin T1) [nM] | IC50 (GSK3b) [nM] | IC50 [1] [nM] | IC50 [2] [nM] | IC50 (CDK2-cycline E) [nM] | IC50 [3, 4] [nM] | IC50 [3, 5] [nM]
CCNc1nc(C)c(-c2ccnc(Nc3ccc(N4CCNCC4)cc3)n2)s1 [Compound 59, [4-(2-Ethylamino-4-methyl-thiazol-5-yl)-pyrimidin-2-yl]-(4-piperazin-1-yl-phenyl)-amine] | 39.8 | 100 | – | 15.8 | 46 | 158 | 630 | 150
Cc1nc(CS(=O)(=O)c2cccs2)sc1-c1ccnc(Nc2ccc(N3CCOCC3)cc2)n1 [Compound 138, {4-[4-Methyl-2-(thiophene-2-sulfonylmethyl)-thiazol-5-yl]-pyrimidin-2-yl}-(4-morpholin-4-yl-phenyl)-amine] | – | – | – | – | – | 3980 | – | –
